How the values were obtained:
[1] = AUC in rat at 3 mg/kg, iv; type: ADME, organism-based; parameters: dose 3 mg/kg, route intravenous; settings: plasma
[2] = Volume of distribution at steady state in rat at 3 mg/kg, iv; settings: in vivo
Rattus norvegicus [3] = test: Dose normalized AUC in rat at 10 mg/kg, po; type: ADME, organism-based; parameters: dose 10 mg/kg, route oral; settings: in vivo
[4] = molecular target: C-C chemokine receptor type 5 (Homo sapiens, UniProt P51681); test: Antagonist activity at human CCR5 expressed in CHO cells assessed as inhibition of MIP-1alpha-induced calcium mobilization; type: functional, cell-based
[5] = Half life in rat at 3 mg/kg, iv; type: ADME, organism-based; parameters: dose 3 mg/kg, route intravenous; settings: in vivo
[6] = Half life in rat at 10 mg/kg, po; type: ADME, organism-based; parameters: dose 10 mg/kg, route oral; settings: in vivo
[7] = Clearance in rat at 3 mg/kg, iv; type: ADME, organism-based; parameters: dose 3 mg/kg, route intravenous; settings: in vivo
Rattus norvegicus [8] = test: Dose normalized Cmax in rat at 10 mg/kg, po; type: ADME, organism-based; parameters: dose 10 mg/kg, route oral; settings: in vivo
[9] = Bioavailability in rat at 10 mg/kg, po; type: ADME, organism-based; settings: in vivo
[10] = Aqueous solubility of the compound at pH 6.8; type: physicochemical; settings: buffer
[11] = system: Human immunodeficiency virus 1; test: microbe, parasite or virus in culture; settings: Human immunodeficiency virus 1, Ba-L
Description: Antiviral activity against R5 tropic HIV1 Ba-L infected PBMC assessed as inhibition of viral p24 antigen expression

Liver microsomes [12] = test: Metabolic stability in rat liver microsomes assessed as compound remaining after 15 mins; type: ADME, Microsome; settings: 0.25 h
Liver microsomes [13] = test: Metabolic stability in human liver microsomes assessed as compound remaining after 15 mins; type: ADME, Microsome; settings: 0.25 h
[14] = Bioavailability in rat at 1 mg/kg, iv; type: ADME, organism-based; settings: in vivo
in vivo [15] = settings: dog, po, 3 mg/kg
Salmonella typhimurium = test: Genotoxicity in Salmonella Typhimurium by Ames test; type: toxicity, organism-based; settings: salmonella enterica subsp. enterica serovar typhimurium
[16] = Bioavailability in dog at 1 mg/kg, iv; type: ADME, organism-based, Canis lupus familiaris; settings: in vivo
[17] = Half life in dog at 3 mg/kg, po; type: ADME, organism-based, Canis lupus familiaris; parameters: dose 3 mg/kg, route oral; settings: in vivo
Rhesus monkey = test: Half life in monkey at 10 mg/kg, po; type: ADME, organism-based, Macaca mulatta; parameters: dose 10 mg/kg, route oral; settings: in vivo
Canis familiaris = test: Cardiotoxicity in dog at 100 mg/kg, po after 14 days; type: toxicity, organism-based, Canis lupus familiaris; parameters: dose 100 mg/kg, route oral; settings: in vivo, 336 h
in vivo [18] = settings: dog, plasma, po, 3 mg/kg
[19] = Clearance in monkey at 1 mg/kg, iv; type: ADME, organism-based, Macaca mulatta; parameters: dose 1 mg/kg, route intravenous; settings: rhesus monkey, in vivo
[20] = Clearance in dog at 1 mg/kg, iv; type: ADME, organism-based, Canis lupus familiaris; parameters: dose 1 mg/kg, route intravenous; settings: in vivo
[21] = Clearance in rat at 1 mg/kg, iv; type: ADME, organism-based; parameters: dose 1 mg/kg, route intravenous; settings: in vivo
Rattus norvegicus [22] = test: Toxicity in rat at 100 mg/kg, po after 14 days; type: organism-based; parameters: dose 100 mg/kg, route oral; settings: in vivo, 336 h
[23] = Bioavailability in monkey at 1 mg/kg, iv; type: ADME, organism-based, Macaca mulatta; settings: rhesus monkey, in vivo

C-C chemokine receptor type 5, sequence (P51681 whole entry): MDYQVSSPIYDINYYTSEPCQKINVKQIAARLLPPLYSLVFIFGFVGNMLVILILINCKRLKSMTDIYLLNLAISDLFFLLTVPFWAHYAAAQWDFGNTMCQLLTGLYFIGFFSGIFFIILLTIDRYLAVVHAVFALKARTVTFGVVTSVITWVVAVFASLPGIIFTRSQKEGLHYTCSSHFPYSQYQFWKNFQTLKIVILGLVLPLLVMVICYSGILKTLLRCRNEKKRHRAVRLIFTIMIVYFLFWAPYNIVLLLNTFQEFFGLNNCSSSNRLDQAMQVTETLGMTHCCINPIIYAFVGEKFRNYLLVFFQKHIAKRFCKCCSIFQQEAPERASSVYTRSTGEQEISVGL

SMILES: CCCN1C(=O)[C@@H]([C@H](O)C2CCCCC2)NC(=O)C12CCN(Cc1ccc(Oc3ccc(C(=O)NC)cc3)cc1)CC2.Cl
- AUC [1]: 1.37 µg·h/mL
- Vd [2]: 1.73 L/kg
- AUC/dose (Rattus norvegicus [3]): 513 ng·h/mL
- IC50 [4]: 0.028 µM
- half-life [5]: 0.72 h
- half-life [6]: 2 h
- clearance [7]: 2.15 L/h/kg
- Cmax/dose (Rattus norvegicus [8]): 0.133 µg/mL
- bioavailability [9]: 11.2%

SMILES: CCCCCN1C(=O)[C@@H]([C@H](O)C2CCCCC2)NC(=O)C12CCN(Cc1ccc(Oc3ccc(C(=O)NC)cc3)cc1)CC2
- IC50 [4]: 0.068 µM

SMILES: CCCCCCN1C(=O)[C@@H]([C@H](O)C2CCCCC2)NC(=O)C12CCN(Cc1ccc(Oc3ccc(C(=O)NC)cc3)cc1)CC2
- IC50 [4]: 0.11 µM

SMILES: CCCCCCCN1C(=O)[C@@H]([C@H](O)C2CCCCC2)NC(=O)C12CCN(Cc1ccc(Oc3ccc(C(=O)NC)cc3)cc1)CC2
- IC50 [4]: 0.19 µM

SMILES: CNC(=O)c1ccc(Oc2ccc(CN3CCC4(CC3)C(=O)N[C@H]([C@H](O)C3CCCCC3)C(=O)N4CCC(C)O)cc2)cc1 (stereo partly drawn)
- IC50 [4]: 0.18 µM

SMILES: CNC(=O)c1ccc(Oc2ccc(CN3CCC4(CC3)C(=O)N[C@H]([C@H](O)C3CCCCC3)C(=O)N4CCOC)cc2)cc1
- IC50 [4]: 0.033 µM

SMILES: CNC(=O)c1ccc(Oc2ccc(CN3CCC4(CC3)C(=O)N[C@H]([C@H](O)C3CCCCC3)C(=O)N4CC(F)(F)F)cc2)cc1
- IC50 [4]: 0.046 µM

SMILES: CNC(=O)c1ccc(Oc2ccc(CN3CCC4(CC3)C(=O)N[C@H]([C@H](O)C3CCCCC3)C(=O)N4CC(F)(F)C(F)(F)F)cc2)cc1
- IC50 [4]: 0.27 µM

SMILES: CCCCN1C(=O)C(C(C)C)NC(=O)C12CCN(Cc1ccc(Oc3ccccc3)cc1)CC2.Cl (stereo not drawn)
- AUC [1]: 0.372 µg·h/mL
- AUC/dose (Rattus norvegicus [3]): 96.7 ng·h/mL
- solubility [10]: 0.2 µg/mL
- half-life [5]: 0.217 h
- half-life [6]: 1.26 h
- Cmax/dose (Rattus norvegicus [8]): 0.0333 µg/mL
- bioavailability [9]: 1.3%

SMILES: CCCCN1C(=O)C(CC2CCCCC2)NC(=O)C12CCN(Cc1ccc(Oc3ccc(C(=O)NC)cc3)cc1)CC2.Cl (stereo not drawn)
- AUC [1]: 0.4 µg·h/mL
- AUC/dose (Rattus norvegicus [3]): 24.8 ng·h/mL
- half-life [5]: 0.332 h
- half-life [6]: 1.72 h
- clearance [7]: 6.78 L/h/kg
- Cmax/dose (Rattus norvegicus [8]): 0.0056 µg/mL
- bioavailability [9]: 1.9%

SMILES: CNC(=O)c1ccc(Oc2ccc(CN3CCC4(CC3)C(=O)N[C@H]([C@H](O)C3CCCCC3)C(=O)N4CCN(C)C)cc2)cc1
- IC50 [4]: 0.64 µM

SMILES: CNC(=O)c1ccc(Oc2ccc(CN3CCC4(CC3)C(=O)N[C@H]([C@H](O)C3CCCCC3)C(=O)N4CCN)cc2)cc1
- IC50 [4]: 0.75 µM

SMILES: Cc1ccc(-c2ccc3c(c2)C=C(C(=O)Nc2ccc(C[N+](C)(C)C4CCOCC4)cc2)CCC3)cc1
- IC90 [11]: 0.256 µM

SMILES: CCCCN1C(=O)[C@@H]([C@H](O)C2CCCCC2)NC(=O)C12CCN(Cc1ccc(Oc3ccccc3)cc1)CC2.Cl
- Stability (Liver microsomes [12]): 18%
- Stability (Liver microsomes [13]): 6%

SMILES: CCCCN1C(=O)[C@@H]([C@H](O)C(C)C)NC(=O)C12CCN(Cc1ccc(Oc3ccccc3)cc1)CC2.Cl
- solubility [10]: 2.7 µg/mL

SMILES: Cc1c(O)cccc1C(=O)N[C@@H](CSc1ccccc1)[C@H](O)CN1C[C@H]2CCCC[C@H]2C[C@H]1C(=O)NC(C)(C)C
- IC90 [11]: 0.105 µM

SMILES: CCCCN1C(=O)[C@@H]([C@H](O)C2CCCCC2)NC(=O)C12CCN(Cc1ccc(Oc3ccc(C(=O)O)cc3)cc1)CC2.Cl [APLAVIROC HYDROCHLORIDE]
- bioavailability [14]: 23%
- Cmax (in vivo [15]): 0.135 µg/mL
- Activity (Salmonella typhimurium): Non-toxic
- bioavailability [16]: 12%
- half-life [17]: 4.5 h
- t1/2 (Rhesus monkey): 24.4 h
- Activity (Canis familiaris): Non-toxic
- AUC (in vivo [18]): 0.189 µg·h/mL
- IC90 [11]: 0.012 µM
- clearance [19]: 15 mL/min
- clearance [20]: 33 mL/min
- clearance [21]: 10 mL/min
- Activity (Rattus norvegicus [22]): Non-toxic
- bioavailability [23]: 4.6%

SMILES: COC[C@@H](c1ccc(C(F)(F)F)cc1)N1CCN(C2(C)CCN(C(=O)c3c(C)ncnc3C)CC2)C[C@@H]1C [VICRIVIROC]
- IC90 [11]: 0.079 µM

SMILES: Cc1cn([C@H]2C[C@H](N=[N+]=[N-])[C@@H](CO)O2)c(=O)[nH]c1=O [ZIDOVUDINE]
- IC90 [11]: 0.048 µM

Reference: ChEMBL document CHEMBL1811891 (Bioorg Med Chem, 2011)
